Reference: patent publication US4210749A, “Substituted 1,2,4,5-tetrahydro-3H,3 benzazepines” (priority 1979, dated 1980)
Counter-ions that a name gives are not always drawn. Like-named read-outs stand apart in the source and are kept apart here.

Tests used:
Assay type in all cases: in vivo
[1] = Narcotic antagonism I.P., Table IV
[2] = I.P. symptomatology (highest tolerated dose, median lethal dose), Table IV; conditions: for LD50 / MTD: in vivo, ip; for MTD: read-out: HTD (highest tolerated dose)
[3] = system: sciatic block; assay: Local anesthetic sciatic block, Table IV; conditions: 1%

Compound	Narcotic Antagonism [1]	LD50 [2] [mg/kg]	MTD [2] [mg/kg]	Local Anesthetic Sciatic Block [3]	LD50 (median lethal dose) [2] [mg/kg]	HTD (highest tolerated dose) [2] [mg/kg]	Narcotic Antagonism ([1]; hydrochloride)	HTD (highest tolerated dose) ([2]; hydrochloride) [mg/kg]
Oc1ccc2c(c1)CCN(C[C@@H]1C[C@H]1c1ccccc1)CC2 (relative stereo) [Example 30, 7-Hydroxy-3(trans-2-phenylcyclopropylmethyl)-1,2,4,5-tetrahydro-3H,3-benzazepine]	Negative	> 1000	1000					
C[C@H]1Cc2ccccc2CCN1 (single isomer, unassigned) [Example 48, (-)-2-Methyl-1,2,4,5-tetrahydro-3H,3-benzazepine]	Some	60	30	Positive				
C[C@@H]1Cc2ccccc2CCN1 (single isomer, unassigned) [Example 49, (+)-2-Methyl-1,2,4,5-tetrahydro-3H,3-benzazepine hydrochloride]	Negative	200	30	Positive				
C[C@H]1Cc2ccccc2CCN1C (single isomer, unassigned) [Example 50, (+)-2,3-Dimethyl-1,2,4,5-tetrahydro-3H,3-benzazepine hydrochloride]	Negative		10	Positive	25			
C[C@@H]1Cc2ccccc2CCN1C (single isomer, unassigned) [Example 54, (-)-2,3-Dimethyl-1,2,4,5-tetrahydro-3H,3-benzazepine hydrochloride]	Negative	60	3	Positive				
COc1ccc2c(c1)CC(C)NCC2 (single isomer, unassigned; (+)) [Example 53, (+)-8-Methoxy-2-methyl-1,2,4,5-tetrahydro-3H,3-benzazepine hydrochloride]	Negative			Positive		10		
CC(C)=CCN1CCc2ccc(O)cc2CC1C (single isomer, unassigned; (+)) [Example 56, (+)-3-(3,3-Dimethylallyl)-8-hydroxy-2-methyl-1,2,4,5-tetrahydro-3H,3-benzazepine hydrochloride]				Positive		10	Negative	
CC1Cc2cc(O)ccc2CCN1C (single isomer, unassigned; (+)) [Example 57, (+)-8-Hydroxy-2,3-dimethyl-1,2,4,5-tetrahydro-3H,3-benzazepine hydrochloride]		> 100	10	Positive				
COc1ccc2c(c1)CC(C)N(C)CC2 (single isomer, unassigned; (+)) [Example 62, (+)-8-Methoxy-2,3-dimethyl-1,2,4,5-tetrahydro-3H,3-benzazepine hydrochloride]	Negative			Positive				10
COc1ccc2c(c1)CC(C)NCC2 (single isomer, unassigned; (-)) [Example 51, (-)8-Methoxy-2-methyl-1,2,4,5-tetrahydro-3H,3-benzazepine]	Negative		10	Positive				
CC(C)=CCN1CCc2ccc(O)cc2CC1C (single isomer, unassigned; (-)) [Example 55, (-)-3-(3,3-Dimethylallyl)-8-hydroxy-2-methyl-1,2,4,5-tetrahydro-3H,3-benzazepine hydrochloride]			10	Positive				
COc1ccc2c(c1)CC(C)N(C)CC2 (single isomer, unassigned; (-)) [Example 63, (-)-8-Methoxy-2,3-dimethyl-1,2,4,5-tetrahydro-3H,3-benzazepine hydrochloride]	Negative			Positive				3
Oc1ccc2c(c1)CCNCC2 [Example 2, 7-Hydroxy-1,2,4,5-tetrahydro-3H,3-benzazepine]	Negative	200	10	Positive				
COc1ccc2c(c1)CCN(CC=C(C)C)CC2 [Example 3, 3-(3,3-Dimethylallyl)-7-methoxy-1,2,4,5-tetrahydro-3H,3-benzazepine]	Negative	50	30	Positive				
CC(C)=CCN1CCc2ccc(OC(=O)C34CC5CC(CC(C5)C3)C4)cc2CC1 [Example 6, 7-(Adamantanecarbonyloxy)-3-(3,3-dimethylallyl)-1,2,4,5-tetrahydro-3H,3-benzazepine hydrochloride]	Positive	> 300	10					
Oc1ccc2c(c1)CCN(CC1CC1)CC2 [Example 8, 3-Cyclopropylmethyl-7-hydroxy-1,2,4,5-tetrahydro-3H,3-benzazepine]	Positive	30	20	Positive				
Oc1ccc2c(c1)CCN(CC1CCC1)CC2 [Example 9, 3-Cyclobutylmethyl-7-hydroxy-1,2,4,5-tetrahydro-3H,3-benzazepine]	Negative	80	20	Positive				
COc1ccc2c(c1)CCN(CC1CCC1)CC2 [Example 13, 3-Cyclobutylmethyl-7-methoxy-1,2,4,5-tetrahydro-3H,3-benzazepine]	Negative	80	30					
CCN1CCc2ccc(O)cc2CC1 [Example 21, 3-Ethyl-7-hydroxy-1,2,4,5-tetrahydro-3H,3-benzazepine]	Positive	80	30					
COc1ccc2c(c1)CC(C)N(CC=C(C)C)CC2 (stereo not shown) [Example 33, 3-(3,3-Dimethylallyl)-8-methoxy-2-methyl-1,2,4,5-tetrahydro-3H,3-benzazepine hydrochloride]	Negative	50	1					
COc1ccc2c(c1)CC(C)N(CC1CC1)CC2 (stereo not shown) [Example 42, 3-Cyclopropylmethyl-8-methoxy-2-methyl-1,2,4,5-tetrahydro-3H,3-benzazepine hydrochloride]	Negative	60	10					
